Earlier results on one molecule are cited in patent US5728685A, “Methods of treating inflammation using cell adhesion inhibitors” (Glycomed Incorporated, priority 1995, dated 1998).

The data set relates to mammalian hepatocytes. The conditions noted are these: Lee et al. 1984, read-out: IC50 for inhibition of labeled ASOR binding; cited from earlier work.

Regarding `OC[C@H]1O[C@@H](O[C@H]2[C@H](O)[C@@H](O)C(O)O[C@@H]2CO)[C@H](O)[C@@H](O)[C@H]1O` (stereo partly shown) [single valent lactose, lactose], the IC50 was 500 µM.
